These results are taken from US8609644B2, “Amino derivatives of androstanes and androstenes as medicaments for cardiovascular disorders” (priority 2006, dated 2013).

For one data set, the target named is Na+, K+-ATPase (Canis lupus familiaris, UniProt P50997). Nature of the data set: biochemical. On the set-up: species or system dog.
The test system of the next data set is anesthetized guinea-pig. Put plainly: Inotropic effect and lethal dose, slow intravenous infusion (over 90 minutes) in anesthetized guinea-pig. Particulars: for ED80 / ED (max) / Emax: Cavia porcellus, iv, 1.5 h; for ED80: read-out: ED80 (inotropic potency, dose increasing +dP/dTmax by 80%); for ED (max): read-out: EDmax (dose inducing maximum positive inotropic effect); for Emax: read-out: Emax % increase in +dP/dTmax; for Lethal dose/ED80 (safety ratio): calculated in the died animals; for Maximum dose infused: maximum dose infused in the survived animals; for % decrease from Emax after 20 min from the end of the infusion: duration of the inotropic effect.

The subject of the next data set is fresh rat hepatocytes. Put plainly: Metabolism in fresh rat hepatocytes. Particulars: fresh rat hepatocytes; test item nominal concentration 45 μM.
Data set [1] deals with hypertensive ouabain-sensitive rats (os rats). Nature of the data set: Systolic blood pressure fall in hypertensive ouabain-sensitive rats (OS rats). In kind it is in vivo, rat. As to conditions: 10 μg/kg/day by mouth for four weeks; for HR / SBP: measured 6 hours after the treatment; for SBP: tail-cuff. Here is the method:
The ability of these compounds to lower blood pressure was tested by using an animal model with induced hypertension, in particular, rats made hypertensive by chronic infusion of ouabain, according to Ferrari P., et al. J. Pharm. Exp. Ther. 1998, 285, 83-94.
The procedure adopted to test the antihypertensive activity of the compounds on the above mentioned model was the following: systolic blood pressure (SBP) and heart rate (HR) were measured by an indirect tail-cuff method. The blood pressure lowering effect was measured in hypertensive ouabain-sensitive rats. The compound, suspended in Methocel 0.5% (w/v), was administered daily at the dose of 10 μg/kg/day by mouth for four weeks. SBP and HR were measured weekly 6 hours after the treatment. The comparison are ouabain sensitive rats (OS rats) and non hypertensive rats (control), both treated only with Methocel 0.5% (w/v). As shown in the following Table 4, treatment with a compound of the present invention lowers the blood pressure of OS rats (170 mm Hg) to almost the level of control rats (150 mm Hg).

Where [2] appears, read: dog kidney enzyme, read-out: Na+, K+-ATPase Inhibition IC50.
Setting [3] is: slow i.v. infusion over 90 minutes.
The mark [4] stands for this setting: read-out: Na+, K+-ATPase Inhibition IC50.

Structures are written as SMILES. Where a name gives a salt, the structure may show the parent alone. Read-outs that look alike come from different tables or passages of the source.

In the case of `CC12CCC3C(C(O)C(CO)C4CC(=NOCCN)CCC43C)C1CCC2=O` (mixture of isomers) [I-ej, (E,Z) 3-(2-Aminoethoxyimino)-6α-hydroxymethyl-7α-hydroxyandrostane-17-one hydrochloride], on Na+, K+-ATPase (setting [2]), the IC50 (as a rule, the concentration at which inhibition is half-maximal) turned out to be 22 nM. Moreover, in the data set with anesthetized guinea-pig, the ED80 turned out to be 0.34 µmol/kg, the ED (max) is 7.55 µmol/kg, the Emax came out at 258% and the “Lethal dose/ED80 (safety ratio)” value is recorded as 50. Further, the Maximum dose infused in the data set on anesthetized guinea-pig is 25.0 µmol/kg. Also, the Dead/treated in the data set on anesthetized guinea-pig (setting [3]) is 3/3. In addition, the “% of compound metabolized after 60 minutes” value (“% of compound metabolized” for short) with fresh rat hepatocytes came out at 5%.
With `CON=C1CC2CC(=NOCCN)CCC2(C)C2CCC3(C)C(=O)CCC3C12` (mixture of isomers) [I-bt, (E,Z)-3-(2-Aminoethoxyimino)-7-(E)-methoxyiminoandrostan-17-one fumarate], the IC50 on Na+, K+-ATPase (setting [2]) came out at 12000 nM. For the same compound, in data set [1], the HR % beats/min is listed as 0%, the “SBP - % (fall vs OS rats)” value came to 8.3%, the “SBP - mm Hg (fall vs OS rats)” value was found to be 14.2 mm Hg and the HR was found to be 368 beats/min. The compound also showed an SBP in data set [1] of 155.8 mm Hg.
`C[C@]12CCC(=NOCCN)CC1[C@@H](NC=O)C[C@@H]1[C@@H]2CC[C@]2(C)C(=O)CC[C@@H]12.O=C(O)/C=C/C(=O)O` (stereo partly drawn) [I-be, (E,Z) 3-(2-Aminoethoxyimino)-6α-formamidoandrostan-17-one fumarate]: the 50% inhibitory concentration (IC50) on Na+, K+-ATPase (setting [4]) was 160 nM. Further, in the data set on anesthetized guinea-pig, the “Lethal dose/ED80 (safety ratio)” value was 32.8, the “% decrease from Emax after 20 min from the end of the infusion” value is given as 37% and the Maximum dose infused was 50.4 µmol/kg. Also, in the data set on anesthetized guinea-pig (maximum increase in contractile force, slow i.v. infusion over 90 minutes), the “Emax % increase in +dP/dTmax” value worked out at 174%. Moreover, in the data set with anesthetized guinea-pig (setting [3]), the Dead/treated is on record as 1/5; the “ED80 (inotropic potency, dose increasing +dP/dTmax by 80%)” value is 1.99 µmol/kg; the “EDmax (dose inducing maximum positive inotropic effect)” value was found to be 27.4 µmol/kg. In the data set with fresh rat hepatocytes, the “% of compound metabolized” value worked out at 16%.
On to `COC1CC2CC(=NOCCN)CCC2(C)C2CCC3(C)C(=O)CCC3C12` (mixture of isomers) [I-ee, (E,Z) 3-(2-Aminoethoxyimino)-7α-methoxyandrostane-17-one hemifumarate], for which the half-inhibitory concentration (IC50) at Na+, K+-ATPase (setting [4]) worked out at 14000 nM. Moreover, in data set [1], the HR % beats/min result is reported as “+5.1%”, the “SBP - % (fall vs OS rats)” value is recorded as 11.0%, the “SBP - mm Hg (fall vs OS rats)” value was 19.0 mm Hg and the HR was 381 beats/min. The SBP in data set [1] is recorded as 151.0 mm Hg. The “% of compound metabolized” value with fresh rat hepatocytes came to 22%.
Regarding `C=C1C[C@@H]2[C@H](CC[C@]3(C)C(=O)CC[C@@H]23)[C@@]2(C)CC/C(=N\OCCN)CC12.Cl` (some centres unmarked) [I-ai, (E) 3-(2-Aminoethoxyimino)-6-methyleneandrostan-17-one hydrochloride], the IC50 against Na+, K+-ATPase (Na+, K+-ATPase Inhibition IC50) is 84 nM. In the data set on anesthetized guinea-pig, the ED80 was determined as 1.2 µmol/kg, the ED (max) is 2.99 µmol/kg, the Emax was found to be 235% and the “% decrease from Emax after 20 min from the end of the infusion” value amounted to 100%. In the data set on anesthetized guinea-pig, this compound yielded a Maximum dose infused of 3.2 µmol/kg. In addition, in the data set with anesthetized guinea-pig (setting [3]), the Dead/treated is reported as 0/5. Further, the “% of compound metabolized” value in the data set with fresh rat hepatocytes came out at 27%.
